# Laboratory results: the NIST ThermoML archive (doi:10.1016/j.jct.2016.12.006)
# Numbers after ± are expanded uncertainties.
# Test: refractive index (Na D-line) (dimensionless)
# Conditions: 303.15 K; 101.33 kPa; Liquid; Standard Abbe refractometry
row,Structure (SMILES),refractive index
1,CC(=O)OC(C)C [1-methylethyl ethanoate],1.3701 ± 0.004
2,"OCC(F)(F)C(F)F [2,2,3,3-tetrafluoro-1-propanol]",1.3196 ± 0.004
3,CCOC(C)=O [ethyl acetate],1.3675 ± 0.004
